# Assay results from US4012387A, “Benzo-[g]pyrido[2,1-b]quinazolinones” (Warner-Lambert Company, priority 1975, dated 1977).
# Read-outs that look alike come from different tables or passages of the source.
# System: rat passive cutaneous anaphylaxis
# Assay: rat passive cutaneous anaphylaxis test (PCA), procedure of Herzig
# Assay type: in vivo
# Text: Mansmann, Eds., John Wiley and Son, N.Y., 1975].
# Effective dose 50% inhibition rat passive cutaneous anaphylaxis
# [1] = effective dose 50% inhibition, rat PCA, intravenous, read-out: ED50 -PCA (rat) iv.
compound,measurement,setting,value
"O=C(O)c1ccc2nc3cc4ccccc4cc3c(=O)n2c1 [Example 1, 6-oxo-6H-benzo[g]pyrido[2,1-b]quinazoline-3-carboxylic acid]",ED50,[1],0.015 mg/kg
same,ED50,"effective dose 50% inhibition, rat PCA, oral, read-out: ED50 -PCA (rat) po.",< 0.1 mg/kg
same,"effectiveness compared with the commercial compound (Intal), i.v. administration","i.v., rat PCA, comparison in words",many times as effective
same,activity in rat PCA when given intraperitonially,"intraperitoneal, result in words",active
same,ED50,"ip, effective dose 50% inhibition, rat PCA, intraperitoneal, read-out: ED50 -PCA (rat) ip.",0.015 mg/kg
same,activity in rat PCA when given orally,"oral, result in words",active
"O=C(O)c1cc(=O)c2c(OCC(O)COc3cccc4oc(C(=O)O)cc(=O)c34)cccc2o1 [Intal, Cromoglycate, reference compound]",ED50 -PCA (rat) ip.,"effective dose 50% inhibition, rat PCA, intraperitoneal",inactive
same,ED50,[1],1 to 2 mg/kg
same,ED50 -PCA (rat) po.,"effective dose 50% inhibition, rat PCA, oral",inactive
